# Reference: patent US20230115176A1 (Ra Pharmaceuticals, Inc., priority 2019, published 2023)
# Columns and labels:
# [1] = Kinetic solubility in PBS pH 7.4, HPLC-UV (Example 21, Table 27); assay type: physicochemical; conditions: phosphate buffered saline, aqueous buffer, kinetic from dmso stock, 0.5 M PBS, shaken minimum 24 h at approximately 25° C., HPLC-UV 270 nm
# Outline: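 Supernatant measured by HPLC-UV (270 nm) against a DMSO calibration curve of 15.6–500.0 μM after filtration. Triplicate samples were made from 10 mM DMSO stock in 0.05 M phosphate buffer pH 7.4 (5% DMSO) and shaken at least 24 h at about 25 °C.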
# [2] = Permeability assay, unidirectional transport, Papp (Example 30, Table 34); assay type: in vitro ADME, canine; conditions: dog, pH 7.4; MDCK-WT cell monolayers, A-to-B, 3 μM test compound, 37° C., duplicate determinations
# Protocol: Permeability assays were carried out to provide a preliminary indication of suitability for oral dosing and compound permeability across the blood brain barrier. Unidirectional and bidirectional compound transport across Madin Darby canine kidney (MDCK) cell monolayers was assessed. For unidirectional transport assessment, transport across MDCK wild type (MDCK-WT) cell monolayers was assessed. For bidirectional transport, transport across MDCK-MDR1 cell monolayers was assessed. MDCK-MDR1 cells express the MDR1 gene encoding the P-glycoprotein (P-gp) efflux protein.
# MDCK-WT and MDCK-MDR1 cells were plated onto permeable polycarbonate supports in 12-well Costar transwell plates and allowed to grow and differentiate for 3 days. After 3 days in culture, the culture medium (DMEM supplemented with 10% FBS) was removed from both sides of the transwell inserts and cells were rinsed with warm HBSS. After the rinse step, the chambers were filled with warm transport buffer (HBSS containing 10 mM HEPES, 0.25% BSA, pH 7.4) and the plates were pre-incubated at 37° C. for 30 minutes prior to TEER (Trans Epithelial Electric Resistance) measurements.
# The buffer in the donor chamber (apical side for A-to-B assay, basolateral side for B-to-A assay) was removed and replaced with the working solution (3 μM test compound and 10 μM for control compounds in transport buffer). The plates were then placed at 37° C. under light agitation. At designated time points (30, 60 and 90 min), an aliquot of transport buffer from the receiver chamber was removed and replenished with fresh transport buffer. Samples were quenched with ice-cold ACN containing internal standard and then centrifuged to pellet protein. Resulting supernatants were further diluted with 50/50 ACN/H2O (Atenolol diluted in just water) and submitted for LC-MS/MS analysis. Apparent permeability (Pap) values were calculated from duplicate determinations. Atenolol and propranolol were tested as low and […] permeability references.
# Papp values indicate extent of compound permeation across monolayers.
# Human C5 [3] = target: T1, Human C5 (Homo sapiens, UniProt P01031); test: Red blood cell (RBC) hemolysis assay, luminescent (Example 28, Table 32); assay type: cell-based; conditions: sheep EA cells, 1.5% C5-depleted human serum, 0.5 nM human C5, 1 hour at 37° C., luminescence (Table 32)
# T1 construct: purchased Complement Technology
# T1 sequence (P01031 19-1676): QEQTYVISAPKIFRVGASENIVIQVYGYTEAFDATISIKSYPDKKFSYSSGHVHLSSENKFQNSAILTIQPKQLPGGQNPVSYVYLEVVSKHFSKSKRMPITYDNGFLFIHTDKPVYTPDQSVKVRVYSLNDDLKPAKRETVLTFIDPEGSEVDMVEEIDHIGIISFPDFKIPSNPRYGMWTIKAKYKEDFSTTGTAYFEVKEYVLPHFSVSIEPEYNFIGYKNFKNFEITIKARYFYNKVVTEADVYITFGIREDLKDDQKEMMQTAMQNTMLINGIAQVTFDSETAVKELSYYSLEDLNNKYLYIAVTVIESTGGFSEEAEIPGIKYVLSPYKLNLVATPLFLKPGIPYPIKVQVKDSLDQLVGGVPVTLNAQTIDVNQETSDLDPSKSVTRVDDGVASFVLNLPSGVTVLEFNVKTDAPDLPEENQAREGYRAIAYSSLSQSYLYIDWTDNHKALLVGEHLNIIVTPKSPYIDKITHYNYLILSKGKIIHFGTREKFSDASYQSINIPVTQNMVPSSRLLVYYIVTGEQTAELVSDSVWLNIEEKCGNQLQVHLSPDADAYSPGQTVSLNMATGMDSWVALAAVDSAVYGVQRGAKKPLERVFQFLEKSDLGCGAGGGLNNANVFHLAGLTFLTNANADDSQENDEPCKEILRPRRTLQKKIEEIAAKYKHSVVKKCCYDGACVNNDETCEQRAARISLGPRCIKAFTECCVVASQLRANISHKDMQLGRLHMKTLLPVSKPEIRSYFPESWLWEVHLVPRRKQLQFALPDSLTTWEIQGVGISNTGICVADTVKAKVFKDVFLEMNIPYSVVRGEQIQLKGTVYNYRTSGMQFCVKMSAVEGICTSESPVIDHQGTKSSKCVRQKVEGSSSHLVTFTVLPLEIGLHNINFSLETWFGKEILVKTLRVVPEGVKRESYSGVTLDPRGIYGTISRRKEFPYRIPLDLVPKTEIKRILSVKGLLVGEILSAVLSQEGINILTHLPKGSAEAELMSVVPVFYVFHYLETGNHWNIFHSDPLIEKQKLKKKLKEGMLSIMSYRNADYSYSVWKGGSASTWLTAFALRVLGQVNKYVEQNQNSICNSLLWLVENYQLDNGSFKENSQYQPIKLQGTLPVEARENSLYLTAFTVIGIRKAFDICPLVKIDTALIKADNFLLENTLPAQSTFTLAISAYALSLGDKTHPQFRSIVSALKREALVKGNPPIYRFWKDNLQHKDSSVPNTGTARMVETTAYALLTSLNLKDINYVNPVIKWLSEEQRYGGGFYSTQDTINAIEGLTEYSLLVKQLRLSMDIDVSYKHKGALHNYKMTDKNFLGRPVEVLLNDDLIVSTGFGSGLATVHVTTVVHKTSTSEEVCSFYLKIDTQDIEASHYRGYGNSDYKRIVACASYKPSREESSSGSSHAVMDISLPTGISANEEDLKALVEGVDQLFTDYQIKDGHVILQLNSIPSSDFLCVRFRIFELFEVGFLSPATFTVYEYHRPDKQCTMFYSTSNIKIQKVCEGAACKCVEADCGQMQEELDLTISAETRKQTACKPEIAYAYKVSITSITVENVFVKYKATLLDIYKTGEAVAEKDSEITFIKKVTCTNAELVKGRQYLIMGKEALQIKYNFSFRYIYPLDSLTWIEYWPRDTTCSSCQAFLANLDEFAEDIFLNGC
# [4] = target: T2, human C5 complement protein (Homo sapiens, UniProt P01031); test: Surface plasmon resonance (SPR), immobilized human C5, 37° C. (Example 18, Table 24); assay type: binding; conditions: lowest value obtained where a range of concentrations was analyzed
# T2 sequence (P01031 19-1676): as above
# [5] = target: T2, human C5 complement protein; test: Surface plasmon resonance (SPR), immobilized human C5, 37° C. (Example 27, Table 31); assay type: binding; conditions: lowest value obtained where a range of concentrations was analyzed (Table 31)
# Human C5 [6] = target: T1, Human C5; test: Red blood cell (RBC) hemolysis assay, luminescent (Example 13, Table 22); assay type: cell-based; conditions: sheep EA cells, […] C5-depleted human serum, 0.5 nM human C5, 1 hour 37° C., luminescence
# From the text: Compound CU0136 is a racemic mixture of Compound CU0186 and CU0187. Numbers in parenthesis following compound numbers indicate alternate enantiomers (as distinguished by retention time during chromatographical separation).
Structure (SMILES),solubility kinetic [1] [µM],Papp A→B at 3 μM [2] [×10⁻⁶ cm/s],IC50 (Human C5 [3]) [nM],Kd [4] [nM],Kd [5] [nM],IC50 (Human C5 [6]) [nM]
CCCCCOc1cc(N2CCCN(Cc3ccnc4c3c(Cl)cn4CC(=O)N3CC[C@@H](N(C)C)C3)C2=O)ccc1OC [CU0520],366,3.9,,,,
CCCCCOc1cc(N2CC[C@H](C)N(Cc3cccc4c3c(Cl)cn4CC3=NCCN3C)C2=O)ccc1OC [SC0169],,1.8,3.5,,,
CCCCCOc1cc(N2CCCN(Cc3ccnc4c3c(Cl)cn4CC(=O)N3CCOCC3)C2=O)ccc1OC [CU0526],< 10,16.8,,0.052,,
COc1cc(CC(=O)N[C@H]2CCNC2)ccc1CN1C(=O)N(c2ccc(OC)c(OCCCC3CC3)c2)CC[C@@H]1C [SC0114],252,0.1,1.3,,,
COc1cc(Cc2ccncn2)ccc1CN1C(=O)N(c2ccc(OC)c(OCCCC3CC3)c2)CC[C@@H]1C [SC0102],,18.2,0.9,,,
COc1ccc(N2CC[C@H](C)N(Cc3cccc4c3c(Cl)cn4CC(=O)N(C)C)C2=O)cc1OCCCC1CCC1 [SC0125],,,1.6,,0.09,
CCCCCOc1cc(N2CC[C@H](C)N(Cc3ccnc4c3c(Cl)cn4CC(=O)N3CC(C)(O)C3)C2=O)ccc1OC [SC0111],,2.5,1.3,,,
CCCCCOc1cc(N2CC(C)CN(Cc3ccc(CC(=O)N4CCCOCC4)cc3OC)C2=O)ccc1OC (stereo not shown) [SC0186],,,5.8,,1.85,
CCCCCOc1cc(N2CCCN(Cc3ccnc4c3c(Cl)cn4C3CCOCC3)C2=O)ccc1OC [CU0513],< 10,9.6,,,,
CCCCCOc1cc(N2CCCN(Cc3ccnc4c3c(Cl)cn4CC(=O)N3CC(O)C3)C2=O)ccc1OC [CU0518],47,1.1,,0.82,,
COc1cc(CC(=O)N2CCNC(=O)C2)ccc1CN1CCCN(c2ccc(OC)c(OCCCC3CC3)c2)C1=O [CU0562],480,,,0.498,,
CCCCCOc1cc(N2CC[C@H](C)N(Cc3ccnc4c3c(Cl)cn4CC(=O)N3CC(N(C)C)C3)C2=O)ccc1OC [SC0155],,9.9,2.6,,,
CCCCCOc1cc(N2CC[C@H](C)N(Cc3ccnc4c3c(Cl)cn4CC(=O)N3CCOC(CN(C)C)C3)C2=O)ccc1OC (stereo partly shown) [SC0156],348,1.3,2.6,,,
CCCCCOc1cc(N2CC[C@H](C)N(Cc3ccnc4c3c(Cl)cn4CC(=O)N[C@H]3CCN(C)C3)C2=O)ccc1OC [SC0147],,0.7,2.2,,,
CCCCCOc1cc(N2CCCN(Cc3ccnc4c3c(Cl)cn4CC(=O)NOC)C2=O)ccc1OC [CU0500],10,,,1.2,,
CCCCCOc1cc(N2CCCN(Cc3ccnc4c3c(Cl)cn4CC(=O)N3CCO[C@H](CN(C)C)C3)C2=O)ccc1OC [CU0533],294,1.7,,0.056,,
CCN1CC[C@H](N(C)C(=O)Cc2ccc(CN3C(=O)N(c4ccc(OC)c(OCCCC5CC5)c4)CC[C@@H]3C)c(OC)c2)C1 [SC0149],,3.5,2.2,,,
CCCCCOc1cc(N2CCCN(Cc3ccc(CC(=O)N4CCOC(CN(C)C)C4)cc3OC)C2=O)ccc1OC (racemic) [CU0136],479,2.4,,,,12.5

Structure (SMILES),solubility kinetic [1] [µM],Papp A→B at 3 μM [2] [×10⁻⁶ cm/s],IC50 (Human C5 [3]) [nM],Kd [4] [nM],Kd [5] [nM],IC50 (Human C5 [6]) [nM]
COc1ccc(N2CC[C@H](C)N(Cc3cccc4c3ccn4CC(=O)N3CCOCC3)C2=O)cc1OCCCC1CC1 [SC0164],426,14.3,2.9,,,
COc1cc(CC(=O)N2CCOCC2)ccc1CN1CCCN(c2ccc(OC)c(OCCCC3CCC3)c2)C1=O [CU0589],131,,,0.302,,
CCCCCOc1cc(N2CCCN(Cc3ccnc4c3c(Cl)cn4CC(=O)N3CC[C@H](N(C)C)C3)C2=O)ccc1OC [CU0521],413,3.9,,,,
CCCCCOc1cc(N2CC[C@H](C)N(Cc3cccc4c3ccn4CC(=O)N3CCO[C@H](CN(C)C)C3)C2=O)ccc1OC [SC0177],309,1.3,4.7,,,
COc1ccc(N2CCCN(Cc3ccnc4c3c(Cl)cn4CC(=O)N3CCOC(CN(C)C)C3)C2=O)cc1OCCCC1CC1 (stereo not shown) [CU0523],486,0.7,,,,
COc1cc(CC(=O)N2CCO[C@@H](CN(C)C)C2)ccc1CN1C(=O)N(c2ccc(OC)c(OCCCC3CC3)c2)CC[C@@H]1C [SC0146],486,2.6,2.1,,,
CCCCCOc1cc(N2CC[C@H](C)N(Cc3cccc4c3ccn4CC(=O)N3CCO[C@@H](CN(C)C)C3)C2=O)ccc1OC [SC0171],356,2,3.7,,,
COc1ccc(N2CCCN(Cc3cccc4c3c(Cl)cn4CC(=O)N(C)C)C2=O)cc1OCCC[C@H]1C[C@@H]1C (racemic) [CU0524],< 10,,,0.038,,
COc1cc(CNC(C)=O)ccc1CN1CCCN(c2ccc(OC)c(OCCCCC3CC3)c2)C1=O [CU0613],190,,,0.533,,
COc1cc(CC(=O)N2CCOCC2)ccc1CN1CCCN(c2ccc(OC)c(OCCCC3CC3)c2)C1=O [CU0511],310,16.6,,0.47,,
CCCCCOc1cc(N2CCCN(Cc3ccnc4c3c(Cl)cn4CC(=O)N3CC[C@@H](OC)C3)C2=O)ccc1OC [CU0534],85,17.4,,0.363,,
COc1cc(CC(=O)N2CC[C@H](N(C)C)C2)ccc1CN1C(=O)N(c2ccc(OC)c(OCCCC3CC3)c2)CC[C@@H]1C [SC0101],,4.7,0.9,,,
CCCCCOc1cc(N2CC[C@H](C)N(Cc3ccnc4c3c(Cl)cn4CC(=O)N(C)C)C2=O)ccc1OC [SC0108],141,21.7,,,,
COc1cc(CC(=O)N[C@H]2CN(C)C[C@H]2F)ccc1CN1C(=O)N(c2ccc(OC)c(OCCCC3CC3)c2)CC[C@@H]1C [SC0123],,4.8,1.5,,,
COc1cc(CC(=O)N2CCOCC2)ccc1CN1CCCN(c2ccc(OC)c(OCCCCC3CC3)c2)C1=O [CU0598],< 10,,,0.747,,
CCCCCOc1cc(N2CC[C@H](C)N(Cc3ccnc4c3c(Cl)cn4CC(=O)N3CC(N4CCOCC4)C3)C2=O)ccc1OC [SC0117],,12.6,1.4,,,
COc1cc(CC(=O)N2CCO[C@H](CN(C)C)C2)ccc1CN1C(=O)N(c2ccc(OC)c(OCCCC3CC3)c2)CC[C@@H]1C [SC0134],266,2.2,1.8,,,
CCN1CC[C@@H](N(C)C(=O)Cc2ccc(CN3C(=O)N(c4ccc(OC)c(OCCCC5CC5)c4)CC[C@@H]3C)c(OC)c2)C1 [SC0144],,3,2.1,,,
